A short description of series [1]: Half life of the compound in DMSO assessed as thermal isomerization by measuring E isomer level at 500 uM incubated for 48 hrs under dark condition by UV-Vis spectroscopy. The class given is physicochemical.
For series [2], the target named is T1, Transient receptor potential cation channel subfamily V member 6 (Homo sapiens) (UniProt Q9H1D0).
T1 sequence (whole entry): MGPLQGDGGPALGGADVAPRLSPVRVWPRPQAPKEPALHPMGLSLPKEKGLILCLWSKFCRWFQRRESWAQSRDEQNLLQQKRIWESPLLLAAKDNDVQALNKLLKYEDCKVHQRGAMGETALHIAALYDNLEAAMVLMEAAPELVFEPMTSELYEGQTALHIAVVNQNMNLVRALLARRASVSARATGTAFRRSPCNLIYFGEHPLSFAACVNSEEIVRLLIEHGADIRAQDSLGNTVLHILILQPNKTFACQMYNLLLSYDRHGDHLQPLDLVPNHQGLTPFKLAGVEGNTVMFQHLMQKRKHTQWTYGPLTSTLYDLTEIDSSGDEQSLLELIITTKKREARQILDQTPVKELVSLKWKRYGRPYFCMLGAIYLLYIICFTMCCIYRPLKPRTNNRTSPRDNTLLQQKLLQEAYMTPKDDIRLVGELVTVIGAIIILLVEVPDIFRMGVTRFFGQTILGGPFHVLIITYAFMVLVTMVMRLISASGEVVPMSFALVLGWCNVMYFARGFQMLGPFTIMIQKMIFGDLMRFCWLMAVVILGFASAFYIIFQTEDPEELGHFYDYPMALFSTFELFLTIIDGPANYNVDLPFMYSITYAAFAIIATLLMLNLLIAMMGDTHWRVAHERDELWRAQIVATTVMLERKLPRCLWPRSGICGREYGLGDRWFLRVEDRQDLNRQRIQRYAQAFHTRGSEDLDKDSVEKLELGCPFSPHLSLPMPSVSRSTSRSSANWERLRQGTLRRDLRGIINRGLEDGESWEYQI
Briefly: Inhibition of human TRPV6 expressed in HEK293 cells assessed as reduction in Cd2+ influx at 10 uM preincubated for 5 mins followed by CdCl2 addition using 365 nm UV-light irradiated compound by calcium-5 fluorescence dye-based FLIPR assay. Type of series: cell-based.

Series [3] concerns the target T1, Transient receptor potential cation channel subfamily V member 6 (Homo sapiens). Briefly: Inhibition of human TRPV6 expressed in HEK293 cells assessed as reduction of Cd2+ influx at 10 uM preincubated for 5 mins followed by CdCl2 addition measured under dark state by calcium-5 fluorescence dye-based FLIPR assay relative to control. The class given is cell-based.

Series [4] in a line: Solubility of the compound in DMSO/buffer at >10 uM. Type of series: physicochemical.
A short description of series [5]: Stability in DMSO assessed as parent compound remaining at 500 uM incubated for 48 hrs in dark by RP-UHPLC analysis. Type of series: physicochemical. Particulars: read-out: Stability.
Series [6] can be described thus: Stability in DMSO assessed as parent compound remaining at 500 uM irradiated with UV light at 365 nm for 5 mins measured immediately by RP-UHPLC analysis.
Series [7] can be described thus: Drug isomerization in DMSO assessed as Z isomer level at 500 uM incubated for 48 hrs in dark by RP-UHPLC analysis.
A short description of series [8]: Drug isomerization in DMSO assessed as Z isomer level at 500 uM irradiated with UV light at 365 nm for 5 mins measured immediately by RP-UHPLC analysis.
Series [9] can be described thus: Drug isomerization in DMSO assessed as Z isomer level at 500 uM irradiated with UV light at 365 nm for 5 mins measured immediately by UV-vis spectra analysis.
Series [10] can be described thus: Thermal isomerization of the compound in DMSO assessed as E isomer level at 500 uM preincubated for 48 hrs under dark condition followed by irradiated with UV light at 365 nm for 5 mins and subsequent irradiation with UV light at 470 nm for 5 mins measured immediately by UV-Vis spectroscopy.
In series [11] the target is T2, Transient receptor potential cation channel subfamily V member 6 (Homo sapiens, UniProt Q9H1D0).
T2 sequence (Q9H1D0 whole entry): T1 sequence (whole entry)
Briefly: Inhibition of human TRPV6 expressed in HEK293 cells assessed as reduction of Cd2+ influx preincubated for 5 mins followed by CdCl2 addition measured under dark state by calcium-5 fluorescence dye-based FLIPR assay. The class given is cell-based.

Series [12] deals with T1, Transient receptor potential cation channel subfamily V member 6 (Homo sapiens). Briefly: Inhibition of human peTFP-C1-TRPV6 expressed in HEK293 cells assessed as decrease in whole cell inward calcium current density at 10 uM at 50 mV holding potential by patch clamp assay. Type of series: cell-based. A general note: The patch-clamp technique gives a direct electrical read-out from membranes.

A short description of series [13]: Drug isomerization in DMSO assessed as Z isomer level by measuring maximum absorbance at 500 uM irradiated with UV light at 365 nm for 5 mins measured immediately by UV-vis spectra analysis.
Series [14] addresses T2, Transient receptor potential cation channel subfamily V member 6. Briefly: Inhibition of human TRPV6 expressed in HEK293 cells assessed as reduction in Cd2+ influx preincubated for 5 mins followed by CdCl2 addition using 365 nm UV-light irradiated compound by calcium-5 fluorescence dye-based FLIPR assay. The class given is cell-based.
Series [15] concerns the target T1, Transient receptor potential cation channel subfamily V member 6 (Homo sapiens). Briefly: Inhibition of human YFP-fused TRPV6 expressed in HEK293 cells assessed as decrease in whole cell inward calcium current density at 10 uM at 50 mV holding potential under 365 nm UV-light irradiation by patch clamp assay. The class given is cell-based.
Series [16] shares this target. Briefly: Inhibition of human YFP-fused TRPV6 expressed in HEK293 cells assessed as decrease in whole cell inward calcium current density at 10 uM at 50 mV holding potential pre-irradiated with 365 nm UV-light followed by […] irradiation by patch clamp assay. Type of series: cell-based.

The source made the active and inactive calls. No cut-off for these calls is given here.

On to `c1ccc(/N=N\c2ccc(N3CCN([C@H]4CC[C@@H](c5ccccc5)CC4)CC3)cn2)cc1`, for which the half-life at 500 µM in [1] is 0.137 h. For the same molecule, the inhibition entry in [2] is “Active”.

In the case of `c1ccc(/N=N/c2ccc(N3CCN([C@H]4CC[C@@H](c5ccccc5)CC4)CC3)cn2)cc1`, in series [3], the inhibition was 30%. For the same molecule, the solubility result in [4] is listed as “Insoluble”. The remaining at 48 h, 500 µM in [5] is 100%. Also, the Stability in [6] was found to be 88%. In addition, the figures for the Z isomer level in series [7] and in series [8] were 0% and 12%, respectively. Moreover, in series [9], the Drug metabolism entry is “Metabolite not detected”.

`c1ccc(/N=N\c2ccc(N3CCN([C@H]4CC[C@@H](c5ccccc5)CC4)CC3)cc2)cc1`: in [10], the Drug metabolism entry is “Metabolite detected”.

Turning to `c1ccc(/N=N/c2ccc(CN3CCN([C@H]4CC[C@@H](c5ccccc5)CC4)CC3)cc2)cc1`, the inhibition in series [3] worked out at 13%. Besides, the solubility result in [4] is listed as “Insoluble”. Moreover, the remaining at 48 h, 500 µM in [5] was 97%. For the same molecule, the Stability in series [6] amounted to 25%. For the same molecule, the IC50 in [11] is greater than 10000 nM. In [12], the inhibition result was “Active”. Besides, the results for the Z isomer level in series [7] and in series [8] were 3% and 75%, respectively. In addition, the Activity in series [13] lay in the range of 400 to 500 nm.

For the molecule `c1ccc([C@H]2CC[C@@H](N3CCN(c4ccc(/N=N\c5cccnc5)cc4)CC3)CC2)cc1`, the Drug metabolism entry in [10] is on record as “Metabolite detected”.

As to `c1ccc(/N=N/c2ccc(N3CCN([C@H]4CC[C@@H](c5ccccc5)CC4)CC3)cc2)cc1`, the solubility entry in [4] is on record as “Insoluble”. Besides, the remaining at 48 h, 500 µM in series [5] is 93%. In addition, the Stability in series [6] stood at 93%. In addition, the Z isomer level in series [7] and in series [8] was 7% in each case. For the same molecule, the Drug metabolism result in series [9] is listed as “Metabolite not detected”.

Consider `c1ccc(/N=N\c2ccc(CN3CCN([C@H]4CC[C@@H](c5ccccc5)CC4)CC3)cn2)cc1`, for which the half-life at 500 µM in [1] is 3.7 h. Besides, in series [2], the inhibition result was “Active”. Also, the IC50 in [14] came out at 600 nM.

For the molecule `c1ccc(/N=N/c2ccc(CN3CCN([C@H]4CC[C@@H](c5ccccc5)CC4)CC3)cn2)cc1`, the inhibition in series [3] amounted to 70%. For the same molecule, the solubility entry in series [4] is listed as “Insoluble”. The remaining at 48 h, 500 µM in [5] came out at 100%. Also, the Stability in series [6] amounted to 50%. Moreover, the 50% inhibitory concentration (IC50) in series [11] was determined as 600 nM. Also, the results for the Z isomer level in series [7] and in series [8] were 0% and 50%, respectively. The Activity in [13] lay in the range of 400 to 500 nm.

With `c1ccc(/N=N\c2ccc(CN3CCN([C@H]4CC[C@@H](c5ccccc5)CC4)CC3)cc2)cc1`, the half-life at 500 µM in series [1] is 93.6 h. Moreover, the inhibition entry in series [2], in [15] and in series [16] was “Active” each time. Moreover, in [14], the IC50 is 1700 nM. Besides, in series [10], the Drug metabolism entry is “Metabolite detected”.

In the case of `c1ccc([C@H]2CC[C@@H](N3CCN(c4ccc(/N=N/c5cccnc5)cc4)CC3)CC2)cc1`, in series [4], the solubility result is given as “Insoluble”. Further, the remaining at 48 h, 500 µM in series [5] came out at 100%. In addition, the Stability in series [6] is 100%. For the same molecule, the Z isomer level in series [7] and in [8] was 0% each time. For the same molecule, the Drug metabolism entry in series [9] is on record as “Metabolite not detected”.

A word on the half-life: it is the time in which the quantity being followed falls by half. Broadly, the inhibition is the change of the read-out against control, counted positive when it falls. Broadly, the IC50 is the concentration at which inhibition is half-maximal.

Source of the values: ChEMBL document CHEMBL4304815, “Photoswitchable Inhibitor of the Calcium Channel TRPV6” (ACS Med Chem Lett, 2019).
